Source: the supplement of paper PMC10307832

Experiments:
Assay in all cases: relative viability (nuclei count vs DMSO), 5 days (fraction); higher = more cells survive
Sulindac + Bortezomib = compound: CC1=C(CC(=O)O)c2cc(F)ccc2/C1=C\c1ccc([S+](C)[O-])cc1 [Sulindac] + CC(C)C[C@H](NC(=O)[C@H](Cc1ccccc1)NC(=O)c1cnccn1)B(O)O [Bortezomib] (partner 0.002 µM)
Summary of the method: (§1)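 Lung cancer cell lines were seeded in 1536-well plates and dosed by pin tool the next day, with either a single drug or a fixed anchor-drug dose combined with five library-drug doses (not always all listed) spaced in √10 steps. Five days later, one step fixed the cells and stained their nuclei (final 0.05% Triton X-100, 1% formaldehyde, 1 ug/ml Hoechst), and nuclei were counted on 4× images. Relative viability is the nuclei count in treated wells divided by the count in vehicle wells, and each value is the median of duplicate plates.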

Sulindac + Linsitinib = compound: CC1=C(CC(=O)O)c2cc(F)ccc2/C1=C\c1ccc([S+](C)[O-])cc1 [Sulindac] + C[C@]1(O)C[C@@H](c2nc(-c3ccc4ccc(-c5ccccc5)nc4c3)c3c(N)nccn32)C1 [Linsitinib] (partner 1 µM)
Summary of the method: as §1

Sulindac + Phenformin = compound: CC1=C(CC(=O)O)c2cc(F)ccc2/C1=C\c1ccc([S+](C)[O-])cc1 [Sulindac] + N=C(N)NC(=N)NCCc1ccccc1 [Phenformin] (partner 250 µM)
Summary of the method: as §1

[1] = compound: O=c1[nH]cc(F)c(=O)[nH]1 [5-Fluorouracil] + Cc1nc(Nc2ncc(C(=O)Nc3c(C)cccc3Cl)s2)cc(N2CCN(CCO)CC2)n1 [Dasatinib] (partner 0.075 µM)
Summary of the method: as §1

Cell Line | relative viability (Sulindac + Bortezomib; first compound 0.08 µM) | relative viability (Sulindac + Bortezomib; first compound 0.253 µM) | relative viability (Sulindac + Bortezomib; first compound 0.8 µM) | relative viability (Sulindac + Bortezomib; first compound 2.53 µM) | relative viability (Sulindac + Bortezomib; first compound 8 µM) | relative viability (Sulindac + Linsitinib; first compound 0.08 µM) | relative viability (Sulindac + Linsitinib; first compound 0.253 µM) | relative viability (Sulindac + Linsitinib; first compound 0.8 µM) | relative viability (Sulindac + Linsitinib; first compound 2.53 µM) | relative viability (Sulindac + Linsitinib; first compound 8 µM) | relative viability (Sulindac + Phenformin; first compound 0.08 µM) | relative viability (Sulindac + Phenformin; first compound 0.253 µM) | relative viability (Sulindac + Phenformin; first compound 0.8 µM) | relative viability (Sulindac + Phenformin; first compound 2.53 µM) | relative viability (Sulindac + Phenformin; first compound 8 µM) | relative viability ([1]; first compound 0.02 µM) | relative viability ([1]; first compound 0.2 µM) | relative viability ([1]; first compound 0.6325 µM) | relative viability ([1]; first compound 2 µM)
NCI-H2405 | 1.01 | 1.01 | 0.888 | 0.96 | 1.06 | 1.01 | 0.934 | 0.852 | 0.918 | 1.13 | 0.395 | 0.455 | 0.505 | 0.389 | 0.465 | 0.217 | 0.231 | 0.197 | 0.224
HCC-44 | 0.89 | 0.882 | 0.853 | 0.904 | 0.966 | 0.769 | 0.729 | 0.707 | 0.702 | 0.786 | 0.181 | 0.205 | 0.186 | 0.159 | 0.261 | – | – | – | –
HCC-78 | 0.432 | 0.534 | 0.379 | 0.607 | 0.532 | 0.521 | 0.493 | 0.439 | 0.454 | 0.501 | 0.792 | 0.689 | 0.614 | 0.763 | 0.738 | 0.34 | 0.427 | 0.322 | 0.254
COR-L23 | 1.17 | 1.14 | – | 1.2 | 1.23 | 1.18 | 0.925 | – | 0.906 | 0.999 | 0.506 | 0.487 | 0.339 | 0.51 | 0.549 | 0.529 | 0.467 | 0.254 | 0.186
NCI-H2009 | 1.1 | 1.16 | 0.877 | 1.01 | 1.04 | 1.22 | 1.3 | 1.05 | 1.13 | 1.23 | 0.549 | 0.521 | 0.45 | 0.53 | 0.538 | 0.226 | 0.322 | 0.248 | 0.271
NCI-H3122 | 1.05 | 1.01 | 1.1 | 1.04 | 1.02 | 1.07 | 1.01 | 0.928 | 1.07 | 1.07 | 0.384 | 0.37 | 0.626 | 0.325 | 0.413 | 0.917 | 0.76 | 0.32 | 0.205
NCI-H2228 | 1.31 | 1.02 | 0.45 | 1.31 | 1.01 | 0.704 | 0.659 | 0.765 | 0.701 | 1.2 | 0.388 | 0.352 | 0.254 | 0.271 | 0.341 | 0.562 | 0.457 | 0.349 | 0.268
NCI-H1944 | – | – | – | – | – | 1.19 | 1.14 | 1 | 1.24 | 1.34 | 0.209 | 0.226 | 0.18 | 0.203 | 0.271 | 0.21 | 0.225 | 0.138 | 0.127
NCI-H358 | – | – | – | – | – | 0.777 | 0.881 | 0.643 | 0.661 | 1.09 | 0.362 | 0.369 | 0.221 | 0.312 | 0.385 | 0.206 | 0.199 | 0.2 | 0.161
